Residues, ends and D or L forms follow the SMILES beside them.
How the values were obtained:
[1] = at room temperature; cited from earlier work
[2] = test system: HIF-1α; assay: HIF-1α ELISA in normal peritoneal fibroblasts after episodic hypoxia and Ala-Gln treatment; type: cell-based; conditions: for HIF-1α 12 hours after hypoxia initiation / HIF-1α 24 hours after hypoxia initiation: NPF
Method: Primary cultures of normal peritoneal fibroblasts (NPF) were established and pre-hypoxia samples were taken to determine levels of HIF-1α and Type 1 Collagen (COL1A1) under normoxic conditions prior to exposure to episodic hypoxic environments. Cultured cells were exposed to episodes of hypoxia (2% 02; 0.5, 1, 2, or 4, […] hours), followed by restoration of normoxia (20% O2) and immediate treatment with Ala-[…], 1, 2, or 10 mM). Levels of HIF-1α and COL1A1 were measured at 12 hours and 24 hours following the initiation of hypoxia. All treatments were completed in triplicate. HIF-1α and COL1A1 levels were determined by ELISA (HIF-1α ELISA (ThermoFisher Scientific) or COL1A1 ELISA (LifeSpan Biosciences), respectively, per the manufacturer's protocol). Data were analyzed with one-way ANOVA followed by Tukey's tests with Bonferroni correction. Results for HIF-1α are in Tables 1-3.

For `NC(=O)CC[C@H](N)C(=O)O` [L-glutamine], the water solubility [1] is given as “about 40 g/L”.

For `C[C@H](N)C(=O)N[C@@H](CCC(N)=O)C(=O)O` [AG, L-alanyl-L-glutamine] (H-Ala-Gln-OH), the “HIF-1α difference from untreated controls” value (“HIF-1α difference” below) ([2]; AG 1.0 mM, 12 h post hypoxia initiation, hypoxia time 0.5 h) was 3.6 pg/mg protein, the “HIF-1α difference” value ([2]; AG 1.0 mM, 12 h post hypoxia initiation, hypoxia time 1.0 h) was 2.3 pg/mg protein and the “HIF-1α difference” value ([2]; AG 1.0 mM, 12 h post hypoxia initiation, hypoxia time 2.0 h) was 2.4 pg/mg protein. The “HIF-1α difference” value ([2]; AG 1.0 mM, 12 h post hypoxia initiation, hypoxia time 4.0 h) was 0.9 pg/mg protein, the “HIF-1α difference” value ([2]; AG 1.0 mM, 24 h post hypoxia initiation, hypoxia time 0.5 h) was 1.6 pg/mg protein and the “HIF-1α difference” value ([2]; AG 1.0 mM, 24 h post hypoxia initiation, hypoxia time 1.0 h) was 3.1 pg/mg protein. The “HIF-1α difference” value ([2]; AG 1.0 mM, 24 h post hypoxia initiation, hypoxia time 2.0 h) was 1.8 pg/mg protein, the “HIF-1α difference” value ([2]; AG 1.0 mM, 24 h post hypoxia initiation, hypoxia time 4.0 h) was 0.7 pg/mg protein and the “HIF-1α 12 hours after hypoxia initiation” value ([2]; AG 1.0 mM, hypoxia time 0.5 h) was 4.2 pg/mg protein. For the same compound, the “HIF-1α 24 hours after hypoxia initiation” value ([2]; AG 1.0 mM, hypoxia time 0.5 h) was 3.6 pg/mg protein, the “HIF-1α 12 hours after hypoxia initiation” value ([2]; AG 1.0 mM, hypoxia time 1.0 h) was 4.6 pg/mg protein and the “HIF-1α 24 hours after hypoxia initiation” value ([2]; AG 1.0 mM, hypoxia time 1.0 h) was 4.6 pg/mg protein. For the same compound, the “HIF-1α 12 hours after hypoxia initiation” value ([2]; AG 1.0 mM, hypoxia time 2.0 h) was 3.3 pg/mg protein, the “HIF-1α 24 hours after hypoxia initiation” value ([2]; AG 1.0 mM, hypoxia time 2.0 h) was 3.3 pg/mg protein and the “HIF-1α 12 hours after hypoxia initiation” value ([2]; AG 1.0 mM, hypoxia time 4.0 h) was 4.9 pg/mg protein. For the same compound, the “HIF-1α 24 hours after hypoxia initiation” value ([2]; AG 1.0 mM, hypoxia time 4.0 h) was 4.9 pg/mg protein, the “HIF-1α difference” value ([2]; AG 2.0 mM, 12 h post hypoxia initiation, hypoxia time 0.5 h) was 3.1 pg/mg protein and the “HIF-1α difference” value ([2]; AG 2.0 mM, 12 h post hypoxia initiation, hypoxia time 1.0 h) was 4.5 pg/mg protein. For the same compound, the “HIF-1α difference” value ([2]; AG 2.0 mM, 12 h post hypoxia initiation, hypoxia time 2.0 h) was 2.5 pg/mg protein, the “HIF-1α difference” value ([2]; AG 2.0 mM, 12 h post hypoxia initiation, hypoxia time 4.0 h) was 1.4 pg/mg protein and the “HIF-1α difference” value ([2]; AG 2.0 mM, 24 h post hypoxia initiation, hypoxia time 0.5 h) was 1.1 pg/mg protein. The “HIF-1α difference” value ([2]; AG 2.0 mM, 24 h post hypoxia initiation, hypoxia time 1.0 h) was 5.3 pg/mg protein, the “HIF-1α difference” value ([2]; AG 2.0 mM, 24 h post hypoxia initiation, hypoxia time 2.0 h) was 1.9 pg/mg protein and the “HIF-1α difference” value ([2]; AG 2.0 mM, 24 h post hypoxia initiation, hypoxia time 4.0 h) was 1.2 pg/mg protein. For the same compound, the “HIF-1α 12 hours after hypoxia initiation” value ([2]; AG 2.0 mM, hypoxia time 0.5 h) was 4.7 pg/mg protein, the “HIF-1α 24 hours after hypoxia initiation” value ([2]; AG 2.0 mM, hypoxia time 0.5 h) was 4.1 pg/mg protein and the “HIF-1α 12 hours after hypoxia initiation” value ([2]; AG 2.0 mM, hypoxia time 1.0 h) was 2.4 pg/mg protein. The “HIF-1α 24 hours after hypoxia initiation” value ([2]; AG 2.0 mM, hypoxia time 1.0 h) was 2.4 pg/mg protein, the “HIF-1α 12 hours after hypoxia initiation” value ([2]; AG 2.0 mM, hypoxia time 2.0 h) was 3.2 pg/mg protein and the “HIF-1α 24 hours after hypoxia initiation” value ([2]; AG 2.0 mM, hypoxia time 2.0 h) was 3.2 pg/mg protein. The “HIF-1α 12 hours after hypoxia initiation” value ([2]; AG 2.0 mM, hypoxia time 4.0 h) was 4.4 pg/mg protein, the “HIF-1α 24 hours after hypoxia initiation” value ([2]; AG 2.0 mM, hypoxia time 4.0 h) was 4.4 pg/mg protein and the “HIF-1α difference” value ([2]; AG 10.0 mM, 12 h post hypoxia initiation, hypoxia time 0.5 h) was 2.6 pg/mg protein. For the same compound, the “HIF-1α difference” value ([2]; AG 10.0 mM, 12 h post hypoxia initiation, hypoxia time 1.0 h) was 3.0 pg/mg protein, the “HIF-1α difference” value ([2]; AG 10.0 mM, 12 h post hypoxia initiation, hypoxia time 2.0 h) was 1.6 pg/mg protein and the “HIF-1α difference” value ([2]; AG 10.0 mM, 12 h post hypoxia initiation, hypoxia time 4.0 h) was 0.3 pg/mg protein. The “HIF-1α difference” value ([2]; AG 10.0 mM, 24 h post hypoxia initiation, hypoxia time 0.5 h) was 1.6 pg/mg protein, the “HIF-1α difference” value ([2]; AG 10.0 mM, 24 h post hypoxia initiation, hypoxia time 1.0 h) was 3.8 pg/mg protein and the “HIF-1α difference” value ([2]; AG 10.0 mM, 24 h post hypoxia initiation, hypoxia time 2.0 h) was 1 pg/mg protein. For the same compound, the “HIF-1α difference” value ([2]; AG 10.0 mM, 24 h post hypoxia initiation, hypoxia time 4.0 h) was 0.1 pg/mg protein, the “HIF-1α 12 hours after hypoxia initiation” value ([2]; AG 10.0 mM, hypoxia time 0.5 h) was 5.2 pg/mg protein and the “HIF-1α 24 hours after hypoxia initiation” value ([2]; AG 10.0 mM, hypoxia time 0.5 h) was 3.6 pg/mg protein. For the same compound, the “HIF-1α 12 hours after hypoxia initiation” value ([2]; AG 10.0 mM, hypoxia time 1.0 h) was 3.9 pg/mg protein, the “HIF-1α 24 hours after hypoxia initiation” value ([2]; AG 10.0 mM, hypoxia time 1.0 h) was 3.9 pg/mg protein and the “HIF-1α 12 hours after hypoxia initiation” value ([2]; AG 10.0 mM, hypoxia time 2.0 h) was 4.1 pg/mg protein. For the same compound, the “HIF-1α 24 hours after hypoxia initiation” value ([2]; AG 10.0 mM, hypoxia time 2.0 h) was 4.1 pg/mg protein, the “HIF-1α 12 hours after hypoxia initiation” value ([2]; AG 10.0 mM, hypoxia time 4.0 h) was 5.5 pg/mg protein and the “HIF-1α 24 hours after hypoxia initiation” value ([2]; AG 10.0 mM, hypoxia time 4.0 h) was 5.5 pg/mg protein. The “HIF-1α difference” value ([2]; Average all doses, 12 h post hypoxia initiation, hypoxia time 0.5 h) was 3.1 pg/mg protein, the “HIF-1α difference” value ([2]; Average all doses, 12 h post hypoxia initiation, hypoxia time 1.0 h) was 3.27 pg/mg protein and the “HIF-1α difference” value ([2]; Average all doses, 12 h post hypoxia initiation, hypoxia time 2.0 h) was 2.17 pg/mg protein. The “HIF-1α difference” value ([2]; Average all doses, 12 h post hypoxia initiation, hypoxia time 4.0 h) was 0.87 pg/mg protein, the “HIF-1α difference” value ([2]; Average all doses, 24 h post hypoxia initiation, hypoxia time 0.5 h) was 1.43 pg/mg protein and the “HIF-1α difference” value ([2]; Average all doses, 24 h post hypoxia initiation, hypoxia time 1.0 h) was 4.07 pg/mg protein. The “HIF-1α difference” value ([2]; Average all doses, 24 h post hypoxia initiation, hypoxia time 2.0 h) was 1.57 pg/mg protein, the “HIF-1α difference” value ([2]; Average all doses, 24 h post hypoxia initiation, hypoxia time 4.0 h) was 0.67 pg/mg protein and the “effect on HIF-1α as compared to untreated cells” value ([2]; at 12 and 24 hours, all durations of hypoxia) was “reduction of HIF-1α”.

From patent US10500318B1, “Dosing regimens for treating hypoxia-associated tissue damage” (Temple Therapeutics BV, priority 2018, dated 2019)
